Data from ChEMBL document CHEMBL1201862, “PubChem BioAssay data set” (2004).
Calls of active or inactive are those of the source.

Columns and labels:
[1] = growth inhibition of yeast DHODH-expressing 3D7 parasites – SYBR Green, dry powder samples, dose response (AID 1159570); type: functional, cell-based;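 note: parasite growth measured after 72 hours of compound exposure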
[2] = toxicity to human HepG2 hepatoma cells – cell-based, plate reader, dry powder samples, cytotoxicity control, dose response (AID 1159569); type: functional;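 note: inhibitor potency with signal falling toward the positive control level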
[3] = P. falciparum Dd2 growth inhibitors, dose response, SYBR Green, cherry-picked samples (AID 1159567); type: functional, cell-based
[4] = Dd2 malaria parasite growth inhibition potency – SYBR Green, dry powder samples, dose response (AID 1159566); type: functional, cell-based;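 note: potency for growth inhibition with lower SYBR green DNA signal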
[5] = growth inhibition of PfATP4-mutant resistant parasites – NITD609-resistant line, SYBR Green, dry powder, dose response (AID 1159571); type: functional, cell-based;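 note: parasites synchronized at ring stage by sorbitol before testing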
[6] = toxicity to human hepatoma HepG2 cells – cell-based, cherry-picked samples, cytotoxicity control, dose response (AID 1159577); type: functional
[7] = target: T1, Ubiquitin carboxyl-terminal hydrolase BAP1 (Homo sapiens, UniProt Q92560); experiment: inhibition of BAP1 ubiquitin hydrolase activity – biochemical, dose response (AID 714); type: functional
T1 sequence (Q92560 whole entry): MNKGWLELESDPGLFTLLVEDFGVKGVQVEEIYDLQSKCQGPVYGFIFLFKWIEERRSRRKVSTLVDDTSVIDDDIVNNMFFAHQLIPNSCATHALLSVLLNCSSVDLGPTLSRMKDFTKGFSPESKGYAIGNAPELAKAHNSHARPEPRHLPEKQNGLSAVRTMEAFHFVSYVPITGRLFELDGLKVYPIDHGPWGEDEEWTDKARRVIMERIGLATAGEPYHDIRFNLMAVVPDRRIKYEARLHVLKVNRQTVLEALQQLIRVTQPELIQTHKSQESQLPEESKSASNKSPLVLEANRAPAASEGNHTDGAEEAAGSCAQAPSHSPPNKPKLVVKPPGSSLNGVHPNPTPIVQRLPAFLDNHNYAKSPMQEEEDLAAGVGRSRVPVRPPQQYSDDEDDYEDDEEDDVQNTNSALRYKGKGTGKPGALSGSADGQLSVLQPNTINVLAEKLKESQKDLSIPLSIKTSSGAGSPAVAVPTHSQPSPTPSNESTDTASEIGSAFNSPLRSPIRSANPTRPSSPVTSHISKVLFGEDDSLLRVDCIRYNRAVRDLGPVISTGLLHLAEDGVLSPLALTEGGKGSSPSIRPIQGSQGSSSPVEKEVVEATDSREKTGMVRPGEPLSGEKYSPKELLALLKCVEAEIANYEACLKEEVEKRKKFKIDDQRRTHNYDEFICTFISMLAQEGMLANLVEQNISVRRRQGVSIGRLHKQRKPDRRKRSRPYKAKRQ

Caspase-3 = target: T2, Caspase-3 (Homo sapiens, UniProt P42574); type: functional;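 note: Dose-response selectivity test against caspase-3 for candidate inhibitors of sentrin-specific proteases (SENPs)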
T2 sequence (P42574 whole entry): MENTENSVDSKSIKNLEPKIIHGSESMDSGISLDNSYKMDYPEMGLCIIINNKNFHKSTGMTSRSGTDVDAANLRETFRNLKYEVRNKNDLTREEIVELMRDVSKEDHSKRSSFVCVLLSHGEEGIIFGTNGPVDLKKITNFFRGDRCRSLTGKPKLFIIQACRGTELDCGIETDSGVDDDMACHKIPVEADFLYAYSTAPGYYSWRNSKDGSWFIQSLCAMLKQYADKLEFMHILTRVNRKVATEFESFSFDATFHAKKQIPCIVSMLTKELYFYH

[8] = target: T3, Sentrin-specific protease 7 (Homo sapiens, UniProt Q9BQF6); type: functional;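 note: Luminescence-based dose-response confirmation of ultra-high-throughput screening hits, measuring inhibition of SENP7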
T3 sequence (Q9BQF6 whole entry): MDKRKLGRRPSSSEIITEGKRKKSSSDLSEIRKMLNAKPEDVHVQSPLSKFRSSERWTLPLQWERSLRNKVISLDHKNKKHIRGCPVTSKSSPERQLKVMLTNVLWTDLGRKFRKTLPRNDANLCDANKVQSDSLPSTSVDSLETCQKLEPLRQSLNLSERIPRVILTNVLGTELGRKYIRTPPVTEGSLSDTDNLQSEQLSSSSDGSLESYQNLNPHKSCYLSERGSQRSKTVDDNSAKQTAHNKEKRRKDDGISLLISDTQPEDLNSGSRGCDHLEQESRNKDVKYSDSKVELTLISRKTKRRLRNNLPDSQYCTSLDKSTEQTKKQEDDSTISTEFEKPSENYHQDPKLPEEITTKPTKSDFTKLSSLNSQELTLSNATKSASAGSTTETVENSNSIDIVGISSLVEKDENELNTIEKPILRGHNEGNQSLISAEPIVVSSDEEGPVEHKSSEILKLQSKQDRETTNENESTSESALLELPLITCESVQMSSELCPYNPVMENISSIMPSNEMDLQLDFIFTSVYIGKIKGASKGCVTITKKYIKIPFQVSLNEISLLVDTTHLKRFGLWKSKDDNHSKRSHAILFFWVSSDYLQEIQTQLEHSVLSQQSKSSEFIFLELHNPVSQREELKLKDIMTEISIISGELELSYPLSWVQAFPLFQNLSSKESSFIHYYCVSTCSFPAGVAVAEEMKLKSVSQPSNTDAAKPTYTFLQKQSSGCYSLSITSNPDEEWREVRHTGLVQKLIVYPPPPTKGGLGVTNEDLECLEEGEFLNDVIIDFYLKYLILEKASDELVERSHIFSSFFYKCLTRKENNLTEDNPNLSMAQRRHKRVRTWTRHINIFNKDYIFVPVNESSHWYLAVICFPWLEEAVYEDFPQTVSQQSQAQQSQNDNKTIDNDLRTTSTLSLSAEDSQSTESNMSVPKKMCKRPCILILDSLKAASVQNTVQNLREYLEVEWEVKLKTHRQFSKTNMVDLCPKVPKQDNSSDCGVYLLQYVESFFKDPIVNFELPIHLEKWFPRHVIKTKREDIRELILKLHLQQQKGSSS

[9] = target: T4, Sentrin-specific protease 6 (Homo sapiens, UniProt Q9GZR1); type: functional;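 note: Luminescence-based dose-response confirmatory assay of SENP6 inhibition, following up an ultra-high-throughput screen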
T4 sequence (Q9GZR1 whole entry): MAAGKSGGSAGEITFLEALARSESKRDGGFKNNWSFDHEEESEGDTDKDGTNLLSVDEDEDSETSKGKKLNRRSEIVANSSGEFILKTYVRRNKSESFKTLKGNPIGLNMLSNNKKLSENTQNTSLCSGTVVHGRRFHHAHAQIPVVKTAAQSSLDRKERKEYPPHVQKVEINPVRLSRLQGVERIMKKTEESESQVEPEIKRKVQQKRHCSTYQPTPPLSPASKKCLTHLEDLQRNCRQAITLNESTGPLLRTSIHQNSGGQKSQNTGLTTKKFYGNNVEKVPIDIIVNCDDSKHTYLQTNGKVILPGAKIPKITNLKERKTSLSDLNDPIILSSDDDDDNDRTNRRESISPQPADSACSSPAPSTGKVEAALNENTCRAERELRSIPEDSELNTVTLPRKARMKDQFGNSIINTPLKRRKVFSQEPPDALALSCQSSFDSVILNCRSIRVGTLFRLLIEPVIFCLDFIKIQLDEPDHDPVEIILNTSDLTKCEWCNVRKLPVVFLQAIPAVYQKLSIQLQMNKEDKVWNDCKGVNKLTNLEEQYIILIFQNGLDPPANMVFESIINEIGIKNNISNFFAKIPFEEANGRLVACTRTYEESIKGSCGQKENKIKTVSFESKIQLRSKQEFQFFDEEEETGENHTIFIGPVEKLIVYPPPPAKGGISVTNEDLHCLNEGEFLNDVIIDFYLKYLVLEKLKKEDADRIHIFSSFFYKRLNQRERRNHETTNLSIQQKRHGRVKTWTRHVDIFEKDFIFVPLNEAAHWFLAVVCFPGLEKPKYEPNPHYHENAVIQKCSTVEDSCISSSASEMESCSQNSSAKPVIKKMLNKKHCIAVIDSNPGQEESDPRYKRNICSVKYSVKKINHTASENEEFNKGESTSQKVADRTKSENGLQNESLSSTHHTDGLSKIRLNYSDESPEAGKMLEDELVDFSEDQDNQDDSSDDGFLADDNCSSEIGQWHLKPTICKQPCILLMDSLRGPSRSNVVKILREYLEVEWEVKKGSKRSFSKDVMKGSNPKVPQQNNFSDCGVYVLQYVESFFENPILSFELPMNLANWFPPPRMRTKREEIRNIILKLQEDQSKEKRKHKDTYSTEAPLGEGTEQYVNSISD

[10] = target: T5, Sentrin-specific protease 8 (Homo sapiens, UniProt Q96LD8); type: functional;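 note: luminescence read-out of SENP8 inhibition, dose-response confirmation following an ultra-high-throughput screen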
T5 sequence (Q96LD8 whole entry): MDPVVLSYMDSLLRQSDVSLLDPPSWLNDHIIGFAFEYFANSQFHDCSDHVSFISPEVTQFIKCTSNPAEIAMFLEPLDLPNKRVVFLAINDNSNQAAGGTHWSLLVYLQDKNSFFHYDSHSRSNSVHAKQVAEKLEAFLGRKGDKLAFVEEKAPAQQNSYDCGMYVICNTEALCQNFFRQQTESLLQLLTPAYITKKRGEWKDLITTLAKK

Protein skinhead-1 = target: T6, Protein skinhead-1 (Caenorhabditis elegans, UniProt P34707); type: functional
T6 sequence (P34707 whole entry): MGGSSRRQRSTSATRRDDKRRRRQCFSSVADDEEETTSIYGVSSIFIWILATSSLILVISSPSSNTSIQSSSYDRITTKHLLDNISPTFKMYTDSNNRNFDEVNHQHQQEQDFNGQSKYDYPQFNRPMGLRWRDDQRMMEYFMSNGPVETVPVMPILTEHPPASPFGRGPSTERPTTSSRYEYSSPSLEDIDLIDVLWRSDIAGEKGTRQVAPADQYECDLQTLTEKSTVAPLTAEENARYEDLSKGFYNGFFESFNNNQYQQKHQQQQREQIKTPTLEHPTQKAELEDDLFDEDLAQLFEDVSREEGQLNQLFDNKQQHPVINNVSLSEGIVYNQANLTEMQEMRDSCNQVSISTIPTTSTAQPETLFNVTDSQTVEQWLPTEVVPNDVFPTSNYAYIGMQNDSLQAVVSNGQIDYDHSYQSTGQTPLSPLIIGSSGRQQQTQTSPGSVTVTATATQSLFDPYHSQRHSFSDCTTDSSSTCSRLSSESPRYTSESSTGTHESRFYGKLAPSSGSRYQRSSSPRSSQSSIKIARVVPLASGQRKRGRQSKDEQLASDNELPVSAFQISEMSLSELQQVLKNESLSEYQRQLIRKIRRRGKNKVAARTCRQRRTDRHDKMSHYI

[11] = target: T7, Oxysterols receptor LXR-beta (Homo sapiens, UniProt P55055); type: functional, cell-based;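 note: Cell-based luminescence dose-response assay of agonist activity at LXR, run as a confirmatory counterscreen to a daf-12 agonist screen; HEK293 cells with Gal4-LXR fusion and GAL4-driven luciferase reporter; agonist potency from rising luciferase signal of a Gal4-LXR reporter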
T7 sequence (P55055 whole entry): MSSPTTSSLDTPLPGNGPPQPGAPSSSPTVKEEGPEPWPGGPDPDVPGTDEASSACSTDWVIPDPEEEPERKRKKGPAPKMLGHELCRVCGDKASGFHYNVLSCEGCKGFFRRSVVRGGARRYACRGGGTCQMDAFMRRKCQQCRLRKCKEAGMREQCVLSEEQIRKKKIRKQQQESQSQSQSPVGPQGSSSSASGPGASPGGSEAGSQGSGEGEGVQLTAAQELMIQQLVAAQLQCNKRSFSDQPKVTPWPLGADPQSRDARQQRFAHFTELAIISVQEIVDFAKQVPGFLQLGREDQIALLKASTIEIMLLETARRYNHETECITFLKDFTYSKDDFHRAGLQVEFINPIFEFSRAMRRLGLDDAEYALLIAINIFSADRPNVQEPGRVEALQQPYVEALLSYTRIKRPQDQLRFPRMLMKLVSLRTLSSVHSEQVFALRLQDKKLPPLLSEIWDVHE

[12] = CellTiter-Glo luminescence survival assay, SW480 colon tumor line, concentration-response curve, half-maximal inhibitory concentration (AID 1117338); type: functional
[13] = RKO cell viability reduction, dose response, CellTiter-Glo luminescence (AID 1117322); type: functional
[14] = cytotoxicity toward HCT116 cells – cell-based, CellTiter-Glo luminescence, IC50, dose response (AID 1117332); type: functional; details: HCT-116
[15] = SNU-C1 cell viability reduction, dose response, CellTiter-Glo luminescence (AID 1117323); type: functional, cell-based
[16] = cytotoxicity toward Colo320 cells – cell-based, CellTiter-Glo luminescence, IC50, dose response (AID 1117334); type: functional; details: COLO 320
[17] = cytotoxicity toward HT-29 cells – cell-based, CellTiter-Glo luminescence, IC50, dose response (AID 1117330); type: functional
[18] = Reduced DLD-1 viability, concentration-response, CellTiter-Glo luminescence (AID 1117352); type: functional

COc1cccc(NC(=O)N(C)C[C@@H]2Oc3cc(C#Cc4ccccc4)ccc3S(=O)(=O)N([C@H](C)CO)C[C@@H]2C)c1
AC50 [1]: 0.975 µM (active) | AC50 [2]: > 100 µM (inactive) | AC50 [3]: 1.19 µM (active) | AC50 [4]: 0.539 µM (active) | AC50 [5]: 0.74 µM (active)

CC(C)CC#Cc1ccc([C@@H]2[C@@H](CO)N3CCCCN(S(=O)(=O)Cc4ccccc4)C[C@@H]23)cc1
AC50 [3]: 5.76 µM (active) | AC50 [6]: > 39 µM (inactive)

COc1ccc(CNS(=O)(=O)c2ccc(S(=O)(=O)N3CCCCC3)cc2)cc1
IC50 [7]: > 50 µM (not active)

Cc1ccccc1-c1nc(-c2ccc(Br)o2)no1
IC50 (Caspase-3): 17 µM (active) | IC50 [8]: 4.23 µM (active) | IC50 [9]: 23.5 µM (active) | IC50 [10]: 35.8 µM (active) | IC50 (Protein skinhead-1): 39.7 µM (active) | EC50 [11]: > 67.6 µM (inactive) | EC50 (cells): > 67.6 µM (inactive)

CCCO/C(O)=C1\C(C)=NC2=C(C(=O)CCC2)C1c1cccc(OC)c1OC (centres undefined)
IC50 [7]: 33.9 µM (not active)

CNS(=O)(=O)Cc1ccc2[nH]cc(CCN(C)C)c2c1
IC50 [12]: > 6.67 µM (inactive) | IC50 [13]: > 20 µM (inactive) | IC50 [14]: > 20 µM (inactive) | IC50 [15]: > 20 µM (inactive) | IC50 [16]: > 20 µM (inactive) | IC50 [17]: > 20 µM (inactive) | IC50 [18]: > 20 µM (inactive)

CCCCNC(=O)c1cnc2ccc(S(=O)(=O)Nc3ccc(OCC)cc3)cc2c1O
IC50 [7]: > 50 µM (not active)
